Values of other authors, collected in patent US20260174880A1, “ELECTROPHILIC REACTIVE LINKERS FOR LABELING OF POLYPEPTIDES AND METHODS OF USE THEREOF” (The Brigham and Women's Hospital, Inc., priority 2023, published 2026).
Where two headings read alike, the source gives them in different places.

Experiments:
NF- B Pathway = settings: at 5 μM
PDK1 [1] = target: T1, PDK1 (Homo sapiens, UniProt O15530); settings: the 35th table; read-out: AC…
T1 sequence (O15530 1-556): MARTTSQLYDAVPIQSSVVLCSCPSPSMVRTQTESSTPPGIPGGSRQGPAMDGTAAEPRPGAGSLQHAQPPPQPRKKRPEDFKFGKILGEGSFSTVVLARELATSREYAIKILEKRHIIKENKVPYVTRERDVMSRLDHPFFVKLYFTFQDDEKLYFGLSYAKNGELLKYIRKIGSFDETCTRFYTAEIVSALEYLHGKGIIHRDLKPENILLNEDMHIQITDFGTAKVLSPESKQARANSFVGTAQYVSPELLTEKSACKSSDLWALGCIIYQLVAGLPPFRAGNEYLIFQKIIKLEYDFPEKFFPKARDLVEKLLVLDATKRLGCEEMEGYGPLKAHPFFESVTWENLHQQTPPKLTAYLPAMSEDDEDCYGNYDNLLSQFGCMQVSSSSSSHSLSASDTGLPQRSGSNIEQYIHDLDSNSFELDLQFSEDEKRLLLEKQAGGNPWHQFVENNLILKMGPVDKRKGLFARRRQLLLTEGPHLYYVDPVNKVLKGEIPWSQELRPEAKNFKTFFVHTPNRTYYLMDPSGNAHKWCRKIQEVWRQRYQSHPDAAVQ

PDK1 [2] = target: T1, PDK1; settings: for T…: the 35th table c7; for …G: the 35th table c8
p38α MAPK = p38α MAPK (Homo sapiens, UniProt Q16539)
Chain of p38α MAPK (Q16539 whole entry): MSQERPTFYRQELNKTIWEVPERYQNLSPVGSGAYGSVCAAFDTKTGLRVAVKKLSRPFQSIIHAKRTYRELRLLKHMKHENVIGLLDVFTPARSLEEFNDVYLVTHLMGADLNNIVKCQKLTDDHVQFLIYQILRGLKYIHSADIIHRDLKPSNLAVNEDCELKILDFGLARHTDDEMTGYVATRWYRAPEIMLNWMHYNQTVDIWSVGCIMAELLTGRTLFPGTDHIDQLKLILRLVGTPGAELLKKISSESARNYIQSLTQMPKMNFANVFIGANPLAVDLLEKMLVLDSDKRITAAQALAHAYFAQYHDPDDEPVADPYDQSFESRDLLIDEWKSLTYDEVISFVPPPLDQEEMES

AKT1 = AKT1 (Homo sapiens, UniProt P31749); settings: the 24th table, the 25th table
Chain of AKT1 (P31749 whole entry): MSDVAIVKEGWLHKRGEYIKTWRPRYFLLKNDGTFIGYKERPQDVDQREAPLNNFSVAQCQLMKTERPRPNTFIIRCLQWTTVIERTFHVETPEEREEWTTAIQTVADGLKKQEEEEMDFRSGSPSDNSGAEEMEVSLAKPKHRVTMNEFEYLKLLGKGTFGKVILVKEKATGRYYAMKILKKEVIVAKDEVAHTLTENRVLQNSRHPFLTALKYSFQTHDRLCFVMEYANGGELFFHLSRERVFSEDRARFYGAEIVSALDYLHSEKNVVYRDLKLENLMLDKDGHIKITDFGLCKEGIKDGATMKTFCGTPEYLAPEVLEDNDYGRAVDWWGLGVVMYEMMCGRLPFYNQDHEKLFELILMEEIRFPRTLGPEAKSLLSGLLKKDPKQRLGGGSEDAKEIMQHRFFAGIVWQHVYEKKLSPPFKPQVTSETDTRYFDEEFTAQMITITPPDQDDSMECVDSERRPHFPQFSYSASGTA

other kinases = settings: at 1000 nM EAI045
MERS-COV = settings: in vitro
Akt = settings: the 26th table
Recombinant PKC = target: T2, Recombinant PKC (Homo sapiens, UniProt Q05513); settings: for % … 62.5 μM (cell…): at 62.5 μM
T2 sequence (Q05513 1-592): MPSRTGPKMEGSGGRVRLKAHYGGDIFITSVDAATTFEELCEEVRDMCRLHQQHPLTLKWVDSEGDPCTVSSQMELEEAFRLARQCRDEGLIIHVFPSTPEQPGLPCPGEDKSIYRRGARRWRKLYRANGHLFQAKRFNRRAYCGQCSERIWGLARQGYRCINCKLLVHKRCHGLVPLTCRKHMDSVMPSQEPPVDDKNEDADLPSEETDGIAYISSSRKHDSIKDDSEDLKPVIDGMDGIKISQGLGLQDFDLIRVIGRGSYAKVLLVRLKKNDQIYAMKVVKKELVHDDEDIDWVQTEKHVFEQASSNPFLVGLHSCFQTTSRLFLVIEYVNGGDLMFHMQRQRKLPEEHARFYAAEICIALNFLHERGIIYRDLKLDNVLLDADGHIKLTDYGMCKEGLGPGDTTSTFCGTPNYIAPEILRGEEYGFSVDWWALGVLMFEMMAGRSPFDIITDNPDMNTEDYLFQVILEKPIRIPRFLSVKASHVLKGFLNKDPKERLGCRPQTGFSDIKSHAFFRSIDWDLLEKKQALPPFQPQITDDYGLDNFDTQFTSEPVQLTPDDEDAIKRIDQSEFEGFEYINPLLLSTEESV

[3] = not given; remark: listed apart in the source
Aurora A = target: T3, Aurora A (Homo sapiens, UniProt O14965); settings: the 30th table
T3 sequence (O14965 1-403): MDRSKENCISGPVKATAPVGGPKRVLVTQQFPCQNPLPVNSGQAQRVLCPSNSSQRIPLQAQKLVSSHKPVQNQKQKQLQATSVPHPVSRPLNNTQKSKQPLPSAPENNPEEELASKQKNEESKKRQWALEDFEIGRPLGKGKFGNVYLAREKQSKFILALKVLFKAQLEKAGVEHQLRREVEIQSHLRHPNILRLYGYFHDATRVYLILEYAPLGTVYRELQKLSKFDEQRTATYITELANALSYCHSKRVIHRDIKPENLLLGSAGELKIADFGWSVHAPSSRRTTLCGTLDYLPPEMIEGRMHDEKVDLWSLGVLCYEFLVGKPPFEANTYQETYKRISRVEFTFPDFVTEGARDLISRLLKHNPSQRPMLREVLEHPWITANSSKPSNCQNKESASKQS

PDK1 [4] = target: T1, PDK1
MEK2 = MEK2 (Homo sapiens, UniProt P36507)
Chain of MEK2 (P36507 whole entry): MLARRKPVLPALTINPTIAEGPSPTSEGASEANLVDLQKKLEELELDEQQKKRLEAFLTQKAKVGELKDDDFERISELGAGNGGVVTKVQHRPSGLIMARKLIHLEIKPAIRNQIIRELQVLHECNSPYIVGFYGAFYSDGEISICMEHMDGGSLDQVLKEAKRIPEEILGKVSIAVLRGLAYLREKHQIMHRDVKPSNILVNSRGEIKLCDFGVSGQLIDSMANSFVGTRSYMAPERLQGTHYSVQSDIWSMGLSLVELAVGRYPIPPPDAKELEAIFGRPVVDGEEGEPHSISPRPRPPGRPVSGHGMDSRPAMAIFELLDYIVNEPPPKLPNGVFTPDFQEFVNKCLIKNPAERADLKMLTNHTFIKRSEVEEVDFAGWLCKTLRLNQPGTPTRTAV

MEK1 = MEK1 (Homo sapiens, UniProt Q02750)
Chain of MEK1 (Q02750 whole entry): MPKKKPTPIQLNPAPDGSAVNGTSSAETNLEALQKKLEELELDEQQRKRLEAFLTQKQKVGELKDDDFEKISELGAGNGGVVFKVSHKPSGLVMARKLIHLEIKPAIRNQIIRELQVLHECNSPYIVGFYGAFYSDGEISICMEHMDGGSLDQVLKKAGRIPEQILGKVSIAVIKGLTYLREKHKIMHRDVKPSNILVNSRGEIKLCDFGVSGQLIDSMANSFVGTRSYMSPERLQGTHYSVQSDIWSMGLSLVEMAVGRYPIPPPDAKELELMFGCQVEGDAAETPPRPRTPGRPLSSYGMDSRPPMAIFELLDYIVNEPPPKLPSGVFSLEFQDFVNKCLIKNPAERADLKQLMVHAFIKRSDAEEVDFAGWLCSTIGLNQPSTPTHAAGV

[5] = system: Molt-4 (T cell acute lymphoblastic leukemia) xenografts; settings: SCID mice
[6] = system: NF-κB dependent transcription
[7] = system: breast carcinoma, prostate carcinoma, colon carcinoma and pancreatic carcinoma xenografts; settings: in vivo

## CC(=O)Nc1cccc(-n2c(=O)n(C3CC3)c(=O)c3c(Nc4ccc(I)cc4F)n(C)c(=O)c(C)c32)c1 [Trametinib]
other
  Absorption/distribution of an oral dose of trametinib tablet: 72%

## CC(C)(C)C1=NN(c2ccc(C(=O)O)cc2)C(c2ccc(O)cc2)C1 (centres unmarked) [1g]
NF- B Pathway
  % … 5 μM (NF…, U… cells): 40.7%

## CC(C)(C)C1=NN(c2ccc(Cl)cc2)C(c2ccc(O)cc2)C1 (centres unmarked) [1a]
NF- B Pathway
  % … 5 μM (NF…, U… cells): 75.1%

## O=C(O)/C=C(/CCc1ccc(Cl)cc1Cl)c1ccccc1 [8Z]
PDK1 [1]
  EC50: 4.7 µM
PDK1 [2]; the 35th table c6
  …H…: -2.08 kcal/mol
PDK1 [2]
  T…: 4.93 kcal/mol
  …G: -7.07 kcal/mol
PDK1 [2]; the 35th table c9
  …H…: 29.5%

## O=C(O)/C=C(/CCc1ccc2ccccc2c1)c1ccccc1 [12Z]
PDK1 [1]
  EC50: 8 µM
PDK1 [2]
  T…: 1.96 kcal/mol
  …G: -6.87 kcal/mol
PDK1 [2]; the 35th table c9
  …H…: 58.3%

## O=C(O)/C=C(/CCc1ccc(Cl)c(Cl)c1)c1ccccc1 [7Z]
PDK1 [1]
  EC50: 2.8 µM
PDK1 [2]; the 35th table c6
  …H…: -3.71 kcal/mol
PDK1 [2]
  T…: 2.80 kcal/mol
  …G: -6.56 kcal/mol
PDK1 [2]; the 35th table c9
  …H…: 56.6%

## Skepinone-B
p38α MAPK
  residence times: 150 s

## Nc1ncccc1-c1nc2cccnc2n1-c1cccc(CNC(=O)c2ccccc2)c1 [8g]
AKT1
  IC50: 13 µM

## CC(C)(C)c1ccc(-n2c(-c3ccncc3)nc3cccnc32)cc1 [3a]
AKT1
  IC50: > 300 µM

## O=C(Nc1nccs1)C(c1cc(F)ccc1O)N1Cc2ccccc2C1=O (centres unmarked) [EAI045]
Other kinases
  inhibition of any other kinases in screening panels: ≤ 20%

## CO[C@H]1C[C@@H]2CC[C@@H](C)[C@@](O)(O2)C(=O)C(=O)N2CCCC[C@H]2C(=O)O[C@H]([C@H](C)C[C@@H]2CC[C@@H](O)[C@H](OC)C2)CC(=O)[C@H](C)/C=C(\C)[C@@H](O)[C@@H](OC)C(=O)[C@H](C)C[C@H](C)/C=C/C=C/C=C/1C [Sirolimus]
MERS-COV
  MERS-COV infection of Huh7 cells: inhibits MERS-COV infection

## Nc1ncccc1-c1nc2cc(C3CCCC3)cnc2n1-c1ccc(CNC(=O)c2ccccc2)cc1 [12d]
Akt
  IC50: > 100 µM

## Nc1ncccc1-c1nc2cccnc2n1-c1ccc(CNCc2ccccc2)cc1 [8h]
AKT1
  IC50: 0.26 µM

## NCc1ccc(-n2c(-c3cccnc3)nc3cccnc32)cc1 [5b]
AKT1
  IC50: 8.8 µM

## CC(C)(C)C1=NN(c2ccc(Br)cc2)C(c2ccc(O)cc2)C1 (centres unmarked) [1c]
Recombinant PKC
  % … 62.5 μM (cell…): 93.2%

## COc1ccccc1Cn1c(-c2cccnc2N)nc2cccnc21 [3c]
AKT1
  IC50: 38 µM

## O=C(O)c1cc(-c2cccc(C(F)(F)F)c2)nc2ccccc12 [compound 34]
C26
  IC50: 0.00033 µM
[3]
  Sol (pH 6.5): 190 μg/mL
Aurora A
  IC50: 26.5 µM
Aurora A; read-out: Calculated K…
  Ki: 507 µM

## O=S(=O)(Nc1nc2ccc(Cl)cc2s1)c1cc2ccccc2s1 [RS2]
PDK1 [4]
  Kd: 9 µM

## Cn1cnc2c(F)c(Nc3ccc(Br)cc3F)c(C(=O)NOCCO)cc21 [Binimetinib]
MEK2
  pIC50: 7.9
MEK1
  pIC50: 7.9

## CC(C)(C)C1=NN(c2cccc(C(F)(F)F)c2)C(c2ccc(O)cc2)C1 (centres unmarked) [1j]
Recombinant PKC
  % … 62.5 μM (cell…): 96.1%

## Nc1ccc(/C=C/C(=O)NCc2cc3cc(-c4ccc(C(=O)N5CCC(F)(F)CC5)cc4)cc(-c4ccc(F)cc4)c3o2)cn1 [KPT-9274]
[5]
  Molt-4 xenografts: induces shrinkage

## Cc1cccc(N2N=C(C(C)(C)C)CC2c2ccc(O)cc2)c1 (centres unmarked) [1k]
Recombinant PKC
  % … 62.5 μM (cell…): 91.7%
NF- B Pathway
  % … 5 μM (NF…, U… cells): 71.7%

## CC(=O)NCc1ccc(-n2c(-c3cccnc3N)nc3cccnc32)cc1 [8d]
AKT1
  IC50: 0.81 µM

## Cc1ccc2nc(NCCN)c3ncc(C)n3c2c1 [BMS-345541]
[6]
  NF-κB dependent transcription in mice: block NF-κB dependent transcription

## Cc1ccc(N2N=C(C(C)(C)C)CC2c2ccc(O)cc2)c(C)c1 (centres unmarked) [1p]
Recombinant PKC
  % … 62.5 μM (cell…): 59.9%
NF- B Pathway
  % … 5 μM (NF…, U… cells): 41.5%

## CC(C)(C)C1=NN(c2cccc(Cl)c2)C(c2ccc(O)cc2)C1 (centres unmarked) [1h]
Recombinant PKC
  IC50: 3.2 µM
  % … 62.5 μM (cell…): 96.8%
NF- B Pathway
  % … 5 μM (NF…, U… cells): 64.6%

## Nc1ncccc1-c1nc2cc(-c3cccnc3)cnc2n1-c1ccc(CNC(=O)c2cccc(F)c2)cc1 [12g]
Akt
  IC50: 0.4 µM

## O=C1NC(=O)[C@@H](c2cn3c4c(cccc24)CCC3)[C@@H]1c1c[nH]c2ccccc12 [tivantinib]
[7]
  growth of carcinoma xenografts: inhibition of growth

## CC(C)(C)C1=NN(c2ccc(C(F)(F)F)cc2)C(c2ccc(O)cc2)C1 (centres unmarked) [1d]
Recombinant PKC
  % … 62.5 μM (cell…): 94.2%

## CC(C)(C)C1=NN(c2ccc(Cl)cc2Cl)C(c2ccc(O)cc2)C1 (centres unmarked) [1n]
Recombinant PKC
  % … 62.5 μM (cell…): 71.0%

## Cc1ccc(N2N=C(C(C)(C)C)CC2c2ccc(O)cc2)cc1 (centres unmarked) [1e]
NF- B Pathway
  % … 5 μM (NF…, U… cells): 62.9%
